The values that follow come from US12325703B2, “Fused ring compound as FGFR and VEGFR dual inhibitor” (CGENETECH (SUZHOU, CHINA) CO., LTD., priority 2019, dated 2025).

In series [1] the target is T1, human FGFR1 (Homo sapiens, UniProt P11362).
T1 construct: purchased Invitrogen PV3146
In words: 33P isotope-labeled kinase activity test (Reaction Biology Corp), FGFR1. In kind it is biochemical. Conditions: 33P-ATP 5 μM, kinase 1.5 nM, 120 min room temperature. The procedure:
(§1) The IC50 value was determined using ^33P isotope-labeled kinase activity test (Reaction Biology Corp) to evaluate the inhibitory ability of the compounds to be tested on human FGFR1, FGFR2 and VEGFR2.
(§2) Buffer conditions: 20 mM Hepes (pH 7.5), 10 mM MgCl2, 1 mM EGTA, 0.02% Brij35, 0.02 mg/mL BSA, 0.1 mM Na3VO4, 2 mM DTT, 1% DMSO.
(§3) Test steps: At room temperature, the compounds to be tested were dissolved in DMSO to prepare a 10 mM solution for use. The substrate was dissolved in the newly-prepared buffer, and the kinase to be tested was added thereto and mixed well. The DMSO solution in which the compounds to be tested were dissolved was added to the above-mentioned homogeneous reaction solution using acoustic technology (Echo 550). […] After incubating for 15 minutes, to the reaction solution was added ^33P-ATP (activity: 0.01 μCi/μL, with corresponding concentration listed in Table 10) to start the reaction. […] The kinase activity data was expressed by comparing the kinase activity of the groups containing the compounds to be tested with that of the blank group (containing only DMSO). The IC50 value was obtained by curve fitting using Prism4 software (GraphPad), and the experimental results were shown in Table 11.

The target of series [2] is T2, human VEGFR2 (Homo sapiens, UniProt P35968).
T2 construct: purchased Invitrogen PR5992C
As to the kind of experiment: 33P isotope-labeled kinase activity test (Reaction Biology Corp), VEGFR2. In kind it is biochemical. Conditions: 33P-ATP 20 μM, kinase 1 nM, 120 min room temperature. The method, then: as §1, §2, §3

Series [3] has as its target T3, human FGFR2 (Homo sapiens, UniProt P21802).
T3 construct: purchased Invitrogen PV3368
As to the kind of experiment: 33P isotope-labeled kinase activity test (Reaction Biology Corp), FGFR2. In kind it is biochemical. Conditions: 33P-ATP 5 μM, kinase 0.45 nM, 120 min room temperature. The procedure:
as §1, §2, §3

For series [4], the system named is human gastric cancer SNU-16 cells expressing FGFR2. In words: Cell activity (proliferation) test of gastric cancer cell line SNU-16, CellTiter-Glo. It counts as cell-based. Conditions: inhibition of proliferation. The method, then: To test the inhibitory effect of the compounds on the proliferation of human gastric cancer SNU-16 cells expressing FGFR2.
The compounds used in the test were subjected to 3-fold concentration dilution, the concentration starting from 10 μM and subjected to […], resulting in 9 concentrations: 10 μM, 2.50 μM, 0.62 μM, 0.156 μM, 39.1 nM, 9.8 nM, 2.4 nM, 0.61 nM, and 0.15 nM.
(1) Promega CellTiter-Glo luminescent cell viability assay kit (Promega-G7573).
(2) 2104 EnVision multi-tag reader, PerkinElmer.
The inhibition rate of different doses of the compounds would be calculated in the Excel file, and the IC50 data was obtained by parametric curve fitting (GraphPad Software).
(In general: In ATP-based viability assays light output follows the ATP content of the culture.)

Series [5] deals with T4, hERG potassium ion channel (Homo sapiens, UniProt Q12809).
T4 construct: expressed in transfected cells; host or cells: CHO-hERG cells
As to the kind of experiment: Inhibition test of hERG potassium ion channel, full-automatic patch clamp (Qpatch), CHO-hERG cells. In kind it is cell-based. Conditions: highest test concentration 40 μM. The procedure: To detect the effect of the compounds of the present disclosure to be tested on the hERG potassium ion channel using a full-automatic patch clamp method.
1.1 CHO-hERG cells were cultured in a 175 cm^2 culture bottle, and once the cells grow to a density of 60% to 80%, the culture solution was removed; and the cells were washed with 7 mL of PBS (Phosphate Buffered Saline), and then digested by adding 3 mL of Detachin.
1.2 After the digestion was complete, 7 mL of culture solution was added for neutralization, and the mixture was centrifuged; and the supernatant was pipetted out, and then 5 mL of culture solution was added for resuspension to ensure that the cells reached a density of 2 to 5×10^6/mL.
The single-cell high-impedance sealing and the whole-cell mode formation process were all automatically completed by the Qpatch instrument. After the whole-cell recording mode was obtained, the cells were clamped at −80 millivolt; before a 5 second +40 millivolt depolarization stimulus was given, a 50 millisecond −50 millivolt pre-voltage was given, then repolarized to −50 millivolt for 5 seconds, and then returned to −80 millivolt. Such a voltage stimulus was applied every 15 seconds and recorded for 2 minutes, and then extracellular fluid was given and recorded for 5 minutes, followed by drug administration. […]
The experimental data was analyzed by GraphPad Prism 5.0 software. […]
In general terms: Block of hERG is tested as a sign of cardiac risk.

A short description of series [6]: Pharmacokinetic study in mice, cassette intravenous injection and intragastric administration. In kind it is in vivo. Conditions: mouse, plasma, Balb/c female mice; for Vd / AUC(0-t) / clearance / half-life: IV 0.2 mg/kg; for Vd: read-out: Apparent volume of distribution Vdss; for AUC(0-t): read-out: Area under the plasma concentration-time curve from time zero to 24 hours AUC0-24 h; for clearance: read-out: Clearance rate CL; for half-life: read-out: Half-life T1/2 (converted); for bioavailability: PO 1 mg/kg vs IV 0.2 mg/kg, read-out: Bioavailability F; for AUC / Cmax / Tmax: PO 1 mg/kg; for AUC: read-out: Area under the plasma concentration-time curve AUC; for Cmax: read-out: Peak concentration Cmax; for Tmax: read-out: Time to peak Tmax. The procedure:
To evaluate the pharmacokinetic behavior of the compounds of the present disclosure after Cassette intravenous injection and intragastric administration, and to investigate the bioavailability thereof after intragastric administration.
Balb/c female mice aged 7 to 10 weeks were selected, and administered intravenously and orally with the doses of 0.2 mg/kg and 1 mg/kg, respectively. The mice were fasted for at least 12 hours before administration, and feeding was resumed after 4 hours of administration. The mice were free to drink water during the entire experiment. In this experiment, Cassette administration was used, and with regard to the intravenous injection group: an appropriate amount of each compound was weighed, and mixed with 5% DMSO/10% Solutol/85% Water for vortexing to prepare a 0.1 mg/mL of clear solution; the clear solution was filtered with a microporous membrane for later use; and with regard to the intragastric administration group: an appropriate amount of each compound was weighted, and mixed with 90% (25% HP-β-CD/10% Cremophor EL) with pH being adjusted to 4 to 5 to prepare a homogeneous suspension for later use. On the day of the experiment, the animals in the intravenous injection group were administrated with the corresponding compounds via tail vein single injection, with the administration volume of 2 mL/kg; and the animals in the oral group were administrated with the corresponding compounds by single intragastric administration, with the administration volume of 10 mL/kg. The body weight of the animals was weighed before administration, and the administration volume was calculated based on the body weight. The sample collection time was: 0.083 (injection group) h, 0.25 h, 0.5 h, 1 h, 2 h, 4 h, 8 h, and 24 h. Approximately 30 uL of whole blood was collected from the saphenous vein at each time point to prepare plasma for high performance liquid chromatography-tandem mass spectrometry (LC-MS/MS) to determine the concentration. All animals were euthanized by CO2 anesthesia after PK samples at the last time point were collected. The non-compartmental model of WinNonlin™ Version 6.3 (Pharsight, Mountain View, CA) pharmacokinetic software was used to process the plasma concentration, and the pharmacokinetic parameters were calculated using the linear logarithmic trapezoidal method.

Series [7] deals with human gastric cancer SNU-16 subcutaneous xenograft tumor. In words: Anti-tumor activity in mouse subcutaneous xenograft tumor model of human gastric cancer SNU-16. It counts as in vivo, nude mice. Conditions: day 25, SNU-16 xenograft. On the technique in general: A xenograft is tissue or cells of one species grown in another, often human tumour cells in immunodeficient mice.
Procedure: To determine the anti-tumor effect of the compounds of the present disclosure in a mouse subcutaneous xenograft tumor model of human gastric cancer SNU-16
preparation of tumor tissues: SNU-16 cells were routinely cultured in an RPMI-1640 culture medium containing 10% fetal bovine serum under the conditions of 5% CO2, 37° C. and saturated humidity.
Each animal was inoculated with 200 μL (8×10^6 cells/mouse) to establish a SNU-16 xenograft model. The animal status was observed regularly, and the tumor diameter was measured with an electronic vernier caliper. The data was input into an Excel spreadsheet to calculate tumor volume and monitor tumor growth.
3) The tumor diameter was measured twice a week to calculate the tumor volume, and the animal body weight was weighted and recorded.
The calculation formula of tumor volume (TV) was: TV (mm^3)=1×w^2/2, where 1 represented the long diameter of the tumor (mm); w represented the short diameter of the tumor (mm).
The anti-tumor efficacy of the compounds was evaluated by TGI (%) or relative tumor proliferation rate T/C (%). […] The relative tumor volume (RTV) was calculated according to the results of the tumor measurement. The calculation formula was RTV=Vt/V0, where V0 was the tumor volume measured at the beginning of the grouping and administration (i.e., D0), and Vt was the tumor volume corresponding to a certain measurement in the mouse. […]

Counter-ions that a name gives are not always drawn.

What is called IC50 is the point on the concentration scale where inhibition reaches its midpoint. Low readings indicate greater potency, high ones weaker potency. The term clearance denotes the volume of plasma or blood freed of the substance per unit of time. As a reminder, the bioavailability is dose-corrected exposure relative to a reference, in per cent. One may read the Tmax as the time at which the peak concentration occurs.

T1 sequence (P11362 22-822): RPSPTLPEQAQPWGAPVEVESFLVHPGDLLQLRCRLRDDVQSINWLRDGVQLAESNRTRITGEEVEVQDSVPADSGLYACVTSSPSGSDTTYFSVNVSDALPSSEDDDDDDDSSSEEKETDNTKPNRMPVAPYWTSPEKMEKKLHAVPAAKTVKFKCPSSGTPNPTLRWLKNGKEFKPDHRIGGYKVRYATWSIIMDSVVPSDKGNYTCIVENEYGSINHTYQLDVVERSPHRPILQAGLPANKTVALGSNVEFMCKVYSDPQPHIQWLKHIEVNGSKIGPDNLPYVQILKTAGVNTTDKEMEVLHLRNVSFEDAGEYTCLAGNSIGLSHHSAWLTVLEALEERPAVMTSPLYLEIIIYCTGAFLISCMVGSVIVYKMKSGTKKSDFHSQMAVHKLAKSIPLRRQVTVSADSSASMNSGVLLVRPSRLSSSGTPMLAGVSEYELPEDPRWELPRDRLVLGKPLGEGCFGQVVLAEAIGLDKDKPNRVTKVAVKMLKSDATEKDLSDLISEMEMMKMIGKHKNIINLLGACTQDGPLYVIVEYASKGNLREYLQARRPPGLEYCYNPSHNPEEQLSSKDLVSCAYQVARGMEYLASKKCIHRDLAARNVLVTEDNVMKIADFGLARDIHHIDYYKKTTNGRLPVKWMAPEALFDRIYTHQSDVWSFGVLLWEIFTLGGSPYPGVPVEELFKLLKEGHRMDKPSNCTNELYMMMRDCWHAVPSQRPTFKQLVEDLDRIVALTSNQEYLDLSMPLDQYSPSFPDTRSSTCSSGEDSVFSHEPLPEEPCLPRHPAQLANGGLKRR
T3 sequence (P21802 22-821): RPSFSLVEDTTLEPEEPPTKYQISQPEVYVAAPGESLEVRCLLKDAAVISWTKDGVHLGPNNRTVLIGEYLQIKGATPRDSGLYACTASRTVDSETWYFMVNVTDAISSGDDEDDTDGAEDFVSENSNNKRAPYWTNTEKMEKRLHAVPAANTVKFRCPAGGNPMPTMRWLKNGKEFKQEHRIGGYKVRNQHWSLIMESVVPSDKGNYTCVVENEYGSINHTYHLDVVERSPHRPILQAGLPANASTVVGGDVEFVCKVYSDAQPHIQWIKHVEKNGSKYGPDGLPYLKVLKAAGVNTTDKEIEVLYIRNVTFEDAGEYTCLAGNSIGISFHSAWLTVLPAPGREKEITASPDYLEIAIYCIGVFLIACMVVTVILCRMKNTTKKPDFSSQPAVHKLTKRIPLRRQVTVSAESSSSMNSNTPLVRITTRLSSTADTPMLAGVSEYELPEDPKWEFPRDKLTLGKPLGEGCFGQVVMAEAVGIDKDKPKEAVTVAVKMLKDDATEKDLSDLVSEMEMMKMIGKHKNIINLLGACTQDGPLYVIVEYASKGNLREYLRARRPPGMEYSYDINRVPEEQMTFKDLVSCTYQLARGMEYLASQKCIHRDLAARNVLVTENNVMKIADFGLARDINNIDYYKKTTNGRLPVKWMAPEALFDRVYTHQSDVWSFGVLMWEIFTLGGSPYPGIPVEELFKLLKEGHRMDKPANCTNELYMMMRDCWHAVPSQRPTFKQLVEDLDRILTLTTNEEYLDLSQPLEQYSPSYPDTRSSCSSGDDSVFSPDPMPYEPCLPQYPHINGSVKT
T2 sequence (P35968 20-1356): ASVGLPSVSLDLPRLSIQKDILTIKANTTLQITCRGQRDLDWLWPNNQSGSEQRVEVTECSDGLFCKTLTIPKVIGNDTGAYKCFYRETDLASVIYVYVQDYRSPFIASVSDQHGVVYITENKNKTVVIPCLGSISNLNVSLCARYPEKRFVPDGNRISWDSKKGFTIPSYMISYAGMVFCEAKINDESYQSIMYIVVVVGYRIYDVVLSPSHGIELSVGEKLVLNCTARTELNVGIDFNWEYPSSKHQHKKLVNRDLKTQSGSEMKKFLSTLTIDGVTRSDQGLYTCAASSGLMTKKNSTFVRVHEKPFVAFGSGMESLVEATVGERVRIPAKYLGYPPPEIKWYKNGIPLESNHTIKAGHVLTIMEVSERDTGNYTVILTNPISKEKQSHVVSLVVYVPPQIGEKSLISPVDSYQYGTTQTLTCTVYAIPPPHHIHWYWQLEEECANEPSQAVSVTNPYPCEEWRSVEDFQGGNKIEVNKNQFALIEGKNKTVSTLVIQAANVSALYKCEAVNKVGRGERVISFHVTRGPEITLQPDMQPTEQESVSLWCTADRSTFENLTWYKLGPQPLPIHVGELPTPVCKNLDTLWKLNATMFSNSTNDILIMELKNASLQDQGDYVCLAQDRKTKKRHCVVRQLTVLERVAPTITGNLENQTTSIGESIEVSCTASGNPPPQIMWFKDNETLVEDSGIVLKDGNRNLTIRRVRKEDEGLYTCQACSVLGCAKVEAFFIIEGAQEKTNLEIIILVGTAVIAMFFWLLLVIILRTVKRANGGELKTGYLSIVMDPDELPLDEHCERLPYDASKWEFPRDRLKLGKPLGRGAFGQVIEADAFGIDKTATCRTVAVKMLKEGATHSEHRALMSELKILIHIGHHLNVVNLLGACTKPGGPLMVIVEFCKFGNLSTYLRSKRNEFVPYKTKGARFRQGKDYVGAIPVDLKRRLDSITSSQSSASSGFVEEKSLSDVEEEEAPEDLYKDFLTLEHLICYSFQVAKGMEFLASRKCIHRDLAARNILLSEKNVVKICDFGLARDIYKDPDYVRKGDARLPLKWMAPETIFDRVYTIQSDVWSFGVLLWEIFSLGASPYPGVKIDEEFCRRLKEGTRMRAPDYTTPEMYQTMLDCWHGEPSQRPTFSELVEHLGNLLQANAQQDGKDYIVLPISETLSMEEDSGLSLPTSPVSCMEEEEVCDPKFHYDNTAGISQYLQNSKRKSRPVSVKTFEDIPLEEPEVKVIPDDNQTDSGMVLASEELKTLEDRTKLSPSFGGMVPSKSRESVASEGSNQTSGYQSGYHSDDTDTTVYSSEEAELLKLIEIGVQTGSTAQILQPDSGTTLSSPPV
T4 sequence (Q12809 whole entry): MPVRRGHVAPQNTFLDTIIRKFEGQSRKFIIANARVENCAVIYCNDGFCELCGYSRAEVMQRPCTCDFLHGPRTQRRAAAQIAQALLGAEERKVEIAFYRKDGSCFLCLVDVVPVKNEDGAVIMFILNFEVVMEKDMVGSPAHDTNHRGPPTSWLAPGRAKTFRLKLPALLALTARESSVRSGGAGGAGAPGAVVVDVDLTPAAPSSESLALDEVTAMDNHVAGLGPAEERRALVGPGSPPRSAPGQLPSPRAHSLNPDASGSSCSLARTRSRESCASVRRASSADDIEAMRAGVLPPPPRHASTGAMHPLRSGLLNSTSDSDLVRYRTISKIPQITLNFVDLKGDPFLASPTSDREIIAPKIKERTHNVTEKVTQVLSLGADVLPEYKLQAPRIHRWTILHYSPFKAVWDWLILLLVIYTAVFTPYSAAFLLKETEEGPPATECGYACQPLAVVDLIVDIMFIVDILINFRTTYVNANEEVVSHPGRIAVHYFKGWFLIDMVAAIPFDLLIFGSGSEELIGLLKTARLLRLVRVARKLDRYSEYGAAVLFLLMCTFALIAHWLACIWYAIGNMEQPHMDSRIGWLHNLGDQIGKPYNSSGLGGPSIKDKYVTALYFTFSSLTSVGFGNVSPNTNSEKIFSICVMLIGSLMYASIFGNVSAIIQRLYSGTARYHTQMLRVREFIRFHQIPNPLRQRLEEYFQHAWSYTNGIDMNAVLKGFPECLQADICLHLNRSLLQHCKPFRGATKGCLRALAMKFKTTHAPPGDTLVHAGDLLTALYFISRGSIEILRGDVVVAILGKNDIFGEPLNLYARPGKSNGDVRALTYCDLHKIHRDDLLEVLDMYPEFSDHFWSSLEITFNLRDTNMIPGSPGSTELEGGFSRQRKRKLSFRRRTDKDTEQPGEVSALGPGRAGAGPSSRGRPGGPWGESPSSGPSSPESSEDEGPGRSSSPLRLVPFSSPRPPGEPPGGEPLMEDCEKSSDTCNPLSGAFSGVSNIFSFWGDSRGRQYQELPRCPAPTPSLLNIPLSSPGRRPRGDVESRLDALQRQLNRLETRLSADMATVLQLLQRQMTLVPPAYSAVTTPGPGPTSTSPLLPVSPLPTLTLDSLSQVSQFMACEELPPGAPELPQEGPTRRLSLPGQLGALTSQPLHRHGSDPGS

As for `CC(=O)Nc1cc(-c2ccc(F)cc2F)cc(-c2cnn3cc(-c4cnn(C)c4)ccc23)c1` [Compound 3], the concentration for half-maximal inhibition (IC50) in series [1] is 0.00237 µM.
`Cn1cc(-c2ccc3c(c2)ncn3-c2cc(NS(=O)(=O)C3CC3)cc(-c3ccc(F)cc3F)c2)cn1` [reference compound]: the results for the IC50 in series [2], in series [3] and in series [1] were 0.0272 µM, 0.0299 µM and 0.0222 µM, respectively.
In turn, `CC(C)Nc1cc(-c2ccc(F)cc2F)cc(-c2cnn3cc(-c4cnn(C)c4)ccc23)c1` [Compound 6] showed an IC50 in series [1] of 0.017 µM.
In series [1], `Cn1cnc(-c2ccc3c(-c4cc(NS(C)(=O)=O)cc(-c5ccc(F)cc5F)c4)cnn3c2)n1` [Compound 7] gave a 50% inhibitory concentration (IC50) of 0.135 µM.
For `Cn1cc(-c2ccc3c(-c4cc(NS(=O)(=O)C5CC5)cc(-c5ncc(F)cc5F)c4)cnn3c2)cn1` [Trifluoroacetate salt of compound 11], the values for the 50% inhibitory concentration (IC50) in series [2], in series [4] and in series [3] were 0.0006 µM, 0.0105 µM and 0.00076 µM, respectively.
The compound `Cn1cc(-c2ccc3c(-c4cc(NS(=O)(=O)C5CC5)nc(-c5ccc(F)cc5F)c4)cnn3c2)cn1` [Compound 14] yielded a half-inhibitory concentration (IC50) in series [1] of 0.0103 µM.
As to `Cn1cc(-c2cnc3c(-c4cc(NS(=O)(=O)C5CC5)cc(-c5ccc(F)cc5F)c4)cnn3c2)cn1` [Compound 5], the figures for the IC50 in series [1] and in series [5] were 0.00934 µM and greater than 40 µM, respectively.
In series [4], `Cn1cc(-c2ccc3c(-c4cc(NS(C)(=O)=O)cc(-c5ccc(F)cc5F)c4)cnn3c2)cn1` [Compound 4] displayed an IC50 of 0.0145 µM. In series [3], this compound had a half-maximal inhibitory concentration (IC50) of 0.0025 µM. Besides, the IC50 in series [1] was 0.00163 µM. Moreover, in series [6], the Vd was 1.4 L/kg, the AUC(0-t) was found to be 0.548 µM·h, the clearance is 12.6 mL/min/kg and the half-life was 1.17 h. Besides, in series [6], the bioavailability stood at 73.2%, the AUC was 1.9 µM·h, the Cmax came out at 463 nM and the Tmax was 2 h. The “TGI (%) (tumor growth inhibition rate) on day 25” value in series [7] (PO 20/30/20 mpk/QD (30 mg/kg/day from day 9, 20 mg/kg/day from day 12)) is on record as 70%.
In the case of `CCS(=O)(=O)Nc1cc(-c2ccc(F)cc2F)cc(-c2cnn3cc(-c4cnn(C)c4)ccc23)c1` [Compound 2], the IC50 in series [4] amounted to 0.0163 µM. The IC50 in series [3] stood at 0.00266 µM. The same compound showed an IC50 in series [1] of 0.00286 µM. In series [6], the Vd stood at 1.2 L/kg, the AUC(0-t) came to 1.14 µM·h, the clearance is 6.53 mL/min/kg and the half-life was 2.12 h. In addition, in series [6], the bioavailability came to 43.8%, the AUC was 1.98 µM·h, the Cmax was found to be 388 nM and the Tmax stood at 2 h. In series [7] (PO 10 mpk/QD), the “TGI (%) (tumor growth inhibition rate) on day 25” value amounted to 74%. This compound displayed an IC50 in series [5] greater than 40 µM.
With `Cn1cc(-c2ccc3c(-c4cc(NS(=O)(=O)C5CC5)cc(-c5ccc(F)cc5F)c4)cnn3c2)cn1` [Compound 1], in series [1], the half-maximal inhibitory concentration (IC50) came to 0.00629 µM. In addition, in series [6], the Vd worked out at 1.25 L/kg, the AUC(0-t) is 0.751 µM·h, the clearance turned out to be 8.53 mL/min/kg and the half-life was 1.52 h. Further, in series [6], the bioavailability was 74%, the AUC is 2.48 µM·h, the Cmax was 540 nM and the time of peak concentration (Tmax) stood at 2 h.
